Blank lines part the entries; values can stand above or below the molecule they belong to.
What was measured:
[1] = system: Giant Foxtail (Setaria faberi); assay: Preemergence herbicidal activity, Giant Foxtail; assay type: in vivo; details: pre-emergence, 504 h, visual score after 3 weeks, 100 = complete kill or no germination, read-out: Pre-emergent % control SETFA; for pest or weed control at 140 ppm: rate 140 ppm; for pest or weed control at 560 ppm: rate 560 ppm; for pest or weed control at 280 ppm: rate 280 ppm
Description: (§1) Seeds of the desired test plant species were planted in a soil matrix prepared by mixing a loam soil (43 percent silt, 19 percent clay, and 38 percent sand, with a pH of about 8.1 and an organic matter content of about 1.5 percent) and sand in a 70 to 30 ratio. The soil matrix was contained in plastic pots with a surface area of 113 square centimeters. When required to ensure good germination and healthy plants, a fungicide treatment and/or other chemical or physical treatment was applied. A weighed amount, determined by the highest rate to be tested, of each test compound was placed in a 20 mL glass vial and was dissolved in 4 mL of a 97:3 v/v (volume/volume) mixture of acetone and dimethyl sulfoxide to obtain concentrated stock solutions. […] The stock solutions obtained were diluted with a 99.9:0.1 mixture of water and Tween® […] surfactant to obtain application solutions of known concentration. The solutions containing the highest concentration to be tested were prepared by diluting 2 mL aliquots of the stock solution with 15 mL of the mixture and lower concentrations were prepared by serial dilution of the stock solution. A 2.5 mL aliquot of each solution of known concentration was sprayed evenly onto the soil surface (113 sq. cm) of each seeded pot using a Cornwall 5.0 mL glass syringe fitted with a TeeJet TN-3 hollow cone nozzle to obtain thorough coverage of the soil in each pot. Control pots were sprayed in the same manner with the aqueous mixture. The treated pots and control pots were placed in a greenhouse maintained with an approximate 15 hr photoperiod and temperatures of about 23-29° C. during the day and 22-28° C. during the night. Nutrients and water were added on a regular basis and supplemental lighting was provided with overhead metal halide 1000-Watt lamps as necessary. The water was added by top-irrigation. After 3 weeks the condition of the test plants that germinated and grew as compared with that of the untreated plants that germinated and grew was determined visually and scored on a scale of 0 to 100 percent where 0 corresponds to no injury and 100 corresponds to complete kill or no germination.

[2] = system: Lambsquarter (Chenopodium album); assay: Postemergence herbicidal activity, Lambsquarter; assay type: in vivo; details: post-emergence, 336 h, visual score after 2 weeks, 0 = no injury, 100 = complete kill, read-out: Post-emergent % control CHEAL; for pest or weed control at 250 ppm: rate 250 ppm
Procedure: (§2) Seeds of the desired test plant species were planted in Grace-Sierra MetroMix® 306 planting mixture, which typically has a pH of 6.0 to 6.8 and an organic matter content of about 30 percent, in plastic pots with a surface area of 64 square centimeters. When required to ensure good germination and healthy plants, a fungicide treatment and/or other chemical or physical treatment was applied. The plants were grown for 7-21 days in a greenhouse with an approximate 15 hr photoperiod which was maintained at about 23-29° C. during the day and 22-28° C. during the night. Nutrients and water were added on a regular basis and supplemental lighting was provided with overhead metal halide 1000-Watt lamps as necessary. The plants were employed for testing when they reached the first or second true leaf stage. A weighed amount, determined by the highest rate to be tested, of each test compound was placed in a 20 mL glass vial and was dissolved in 4 mL of a 97:3 v/v (volume/volume) mixture of acetone and dimethyl sulfoxide (DMSO) to obtain concentrated stock solutions. […] The concentrated stock solutions obtained were diluted with an aqueous mixture containing acetone, water, isopropyl alcohol, DMSO, Atplus 411F crop oil concentrate, and Triton X-155 surfactant in a 48.5:39:10:1.5:1.0:0.02 v/v ratio to obtain spray solutions of known concentration. The solutions containing the highest concentration to be tested were prepared by diluting 2 mL aliquots of the stock solution with 13 mL of the mixture and lower concentrations were prepared by serial dilution of the stock solution. Approximately 1.5 mL aliquots of each solution of known concentration were sprayed evenly onto each of the test plant pots using a DeVilbiss atomizer driven by compressed air pressure of 2 to 4 psi (140 to 280 kilopascals) to obtain thorough coverage of each plant. Control plants were sprayed in the same manner with the aqueous mixture. In this test an application rate of 1 ppm results in the application of approximately 1 g/Ha. The treated plants and control plants were placed in a greenhouse as described above and watered by sub-irrigation to prevent wash-off of the test compounds. After 2 weeks the condition of the test plants as compared with that of the untreated plants was determined visually and scored on a scale of 0 to 100 percent where 0 corresponds to no injury and 100 corresponds to complete kill.

[3] = system: Ivyleaf Morningglory (Ipomoea hederacea); assay: Preemergence herbicidal activity, Ivyleaf Morningglory; assay type: in vivo; details: pre-emergence, 504 h, visual score after 3 weeks, 100 = complete kill or no germination, read-out: Pre-emergent % control IPOHE; for pest or weed control at 140 ppm: rate 140 ppm; for pest or weed control at 560 ppm: rate 560 ppm; for pest or weed control at 280 ppm: rate 280 ppm
Description: as §1

[4] = system: Lambsquarter (Chenopodium album); assay: Preemergence herbicidal activity, Lambsquarter; assay type: in vivo; details: pre-emergence, 504 h, visual score after 3 weeks, 100 = complete kill or no germination, read-out: Pre-emergent % control CHEAL; for pest or weed control at 140 ppm: rate 140 ppm; for pest or weed control at 560 ppm: rate 560 ppm; for pest or weed control at 280 ppm: rate 280 ppm
Description: as §1

[5] = system: Crabgrass(large) (Digitaria sanguinalis); assay: Preemergence herbicidal activity, Crabgrass(large); assay type: in vivo; details: pre-emergence, 504 h, visual score after 3 weeks, 100 = complete kill or no germination, read-out: Pre-emergent % control DIGSA; for pest or weed control at 140 ppm: rate 140 ppm; for pest or weed control at 560 ppm: rate 560 ppm; for pest or weed control at 280 ppm: rate 280 ppm
Description: as §1

[6] = system: Giant Foxtail (Setaria faberi); assay: Postemergence herbicidal activity, Giant Foxtail; assay type: in vivo; details: post-emergence, 336 h, visual score after 2 weeks, 0 = no injury, 100 = complete kill, read-out: Post-emergent % control SETFA; for pest or weed control at 250 ppm: rate 250 ppm
Procedure: as §2

[7] = system: Cocklebur (Xanthium strumarium); assay: Postemergence herbicidal activity, Cocklebur; assay type: in vivo; details: post-emergence, 336 h, visual score after 2 weeks, 0 = no injury, 100 = complete kill, read-out: Post-emergent % control XANST; for pest or weed control at 250 ppm: rate 250 ppm
Procedure: as §2

[8] = system: Barnyardgrass (Echinochloa crus-galli); assay: Postemergence herbicidal activity, Barnyardgrass; assay type: in vivo; details: post-emergence, 336 h, visual score after 2 weeks, 0 = no injury, 100 = complete kill, read-out: Post-emergent % control ECHCG; for pest or weed control at 250 ppm: rate 250 ppm
Procedure: as §2

melting point: 109 to 110 °C
SMILES: CCc1nc(C(=O)OC)c(Cl)c(N)c1F [Compound 3, Methyl 4-amino-3-chloro-6-ethyl-5-fluoropyridine-2-carboxylate]
pest or weed control at 140 ppm [1]: 100%
pest or weed control at 250 ppm [2]: 100%
pest or weed control at 140 ppm [3]: 100%
pest or weed control at 140 ppm [4]: 100%
pest or weed control at 140 ppm [5]: 100%
pest or weed control at 250 ppm [6]: 80%
pest or weed control at 250 ppm [7]: 100%
pest or weed control at 250 ppm [8]: 85%

SMILES: C=Cc1cc(N)c(Cl)c(C(=O)OC)n1 [Compound 2, Methyl 4-amino-3-chloro-6-vinylpyridine-2-carboxylate]
pest or weed control at 560 ppm [1]: 0%
pest or weed control at 250 ppm [2]: 85%
pest or weed control at 560 ppm [3]: 60%
pest or weed control at 560 ppm [4]: 100%
pest or weed control at 560 ppm [5]: 0%
pest or weed control at 250 ppm [6]: 10%
pest or weed control at 250 ppm [7]: 80%
pest or weed control at 250 ppm [8]: 0%

SMILES: Cc1cc(N)c(Cl)c(C(=O)O)n1 [Compound 8, 4-Amino-3-chloro-6-methylpyridine-2-carboxylic acid]
pest or weed control at 280 ppm [1]: 10%
pest or weed control at 250 ppm [2]: 40%
pest or weed control at 280 ppm [3]: 85%
pest or weed control at 280 ppm [4]: 100%
pest or weed control at 280 ppm [5]: 20%
pest or weed control at 250 ppm [6]: 0%
pest or weed control at 250 ppm [7]: 70%
pest or weed control at 250 ppm [8]: 0%

melting point: 113 to 114 °C
SMILES: COC(=O)c1nc(C)c(F)c(N)c1Cl [Compound 12, Methyl 4-amino-3-chloro-5-fluoro-6-methylpyridine-2-carboxylate]
pest or weed control at 140 ppm [1]: 98%
pest or weed control at 250 ppm [2]: 100%
pest or weed control at 140 ppm [3]: 100%
pest or weed control at 140 ppm [4]: 100%
pest or weed control at 140 ppm [5]: 100%
pest or weed control at 250 ppm [6]: 95%
pest or weed control at 250 ppm [7]: 100%
pest or weed control at 250 ppm [8]: 80%

SMILES: CSCc1cc(N)c(Cl)c(C(=O)O)n1 [Compound 10, 4-Amino-3-chloro-6-[(methylthio)methyl]pyridine-2-carboxylic acid]
pest or weed control at 560 ppm [1]: 0%
pest or weed control at 250 ppm [2]: 70%
pest or weed control at 560 ppm [3]: 0%
pest or weed control at 560 ppm [4]: 0%
pest or weed control at 560 ppm [5]: 0%
pest or weed control at 250 ppm [6]: 20%
pest or weed control at 250 ppm [7]: 85%
pest or weed control at 250 ppm [8]: 0%

SMILES: C=CCc1cc(N)c(Cl)c(C(=O)O)n1 [Compound 11, 6-Allyl-4-amino-3-chloropyridine-2-carboxylic acid]
pest or weed control at 560 ppm [1]: 0%
pest or weed control at 250 ppm [2]: 70%
pest or weed control at 560 ppm [3]: 80%
pest or weed control at 560 ppm [4]: 40%
pest or weed control at 560 ppm [5]: 0%
pest or weed control at 250 ppm [6]: 0%
pest or weed control at 250 ppm [7]: 85%
pest or weed control at 250 ppm [8]: 0%

SMILES: Cc1nc(C(=O)O)c(Cl)c(N)c1F [Compound 7, 4-Amino-3-chloro-6-methyl-5-fluoropyridine-2-carboxylic acid]
pest or weed control at 295 ppm ([1]; rate 295 ppm): 85%
pest or weed control at 288 ppm ([2]; rate 288 ppm): 98%
pest or weed control at 295 ppm ([3]; rate 295 ppm): 98%
pest or weed control at 295 ppm ([4]; rate 295 ppm): 98%
pest or weed control at 295 ppm ([5]; rate 295 ppm): 85%
pest or weed control at 288 ppm ([6]; rate 288 ppm): 85%
pest or weed control at 288 ppm ([7]; rate 288 ppm): 100%
pest or weed control at 288 ppm ([8]; rate 288 ppm): 80%

melting point: 144 to 145 °C
SMILES: CCc1nc(C(=O)O)c(Cl)c(N)c1F [Compound 5, 4-Amino-3-chloro-6-ethyl-5-fluoropyridine-2-carboxylic acid]
pest or weed control at 140 ppm [1]: 90%
pest or weed control at 250 ppm [2]: 100%
pest or weed control at 140 ppm [3]: 100%
pest or weed control at 140 ppm [4]: 100%
pest or weed control at 140 ppm [5]: 90%
pest or weed control at 250 ppm [6]: 70%
pest or weed control at 250 ppm [7]: 100%
pest or weed control at 250 ppm [8]: 85%

melting point: 68 to 71 °C
SMILES: C=Cc1nc(C(=O)OC)c(Cl)c(N)c1F [Compound 1, Methyl 4-amino-3-chloro-5-fluoro-6-vinylpyridine-2-carboxylate]
pest or weed control at 280 ppm [1]: 90%
pest or weed control at 250 ppm [2]: 100%
pest or weed control at 280 ppm [3]: 100%
pest or weed control at 280 ppm [4]: 100%
pest or weed control at 280 ppm [5]: 95%
pest or weed control at 250 ppm [6]: 50%
pest or weed control at 250 ppm [7]: 100%
pest or weed control at 250 ppm [8]: 60%

Source: patent US7432227B2, “6-alkyl or alkenyl-4-aminopicolinates and their use as herbicides” (Dow AgroSciences LLC, priority 2003, dated 2008)
